These results are taken from publication PMC10786919, “Design-rules for stapled peptides with in vivo activity and their application to Mdm2/X antagonists” (Nature Communications, 2024).

≈ marks a conversion by molar mass, not a printed value. Where two headings read alike, the source gives them in different places. Positions of bridges follow the written chain, without caps; N, C: chain ends. Non-standard residues stand in square brackets, D forms with d. Residues, ends and D or L forms follow the SMILES beside them. Lys(N3) = [N-]=[N+]=NCCCC[C@H](N)C(=O)O; hArg = N=C(N)NCCCC[C@H](N)C(=O)O; R8 = C=CCCCCCC[C@@](C)(N)C(=O)O; Cba = N[C@@H](CC1CCC1)C(=O)O; S5 = C=CCCC[C@](C)(N)C(=O)O; βAla = NCCC(=O)O

The test system of one series is HCT116 cells. The experiment in a line: Lactate dehydrogenase (LDH) release assay. The class given is cell-based. Summed up: (§1)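 A p53 β-lactamase reporter HCT116 line, 8000 cells per well, is exposed to test compounds at 0.5% final DMSO and scored for LDH leakage.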
The nature of series [1]: Lactate dehydrogenase (LDH) release assay. The class given is cell-based. In short, it runs like this:
as §1

Series [2] is described as follows: physchem.
The test system of series [3] is panel of cancer cell lines, p53 WT or p53 deficient (null, mutant, HPV infected). The class given is cell-based. The following applies: p53 WT vs p53 null/mutant/HPV. An excerpt: Amongst the cell lines used, the following lines are amongst those listed as frequently misidentified by the International Cell Line Authentication Committee: HeLa, A549, HepG2, MCF-7,LoVo, SW48,.AsPC-1,HL-60, and MIA PaCa-2. These latter lines were used in order to employ a variety of lines represented diverse cancer types and that represented different p53 status (wild-type, mutant, null, and HPV infected). Imporantly, assay ready cells were used for these experiments and PCR analysis of target short tandem repeat (STR) markers was used to authenticate cell lines prior to cell banking. Cell viabilities were determined using the CellTiter-Glo® assay kit (Promega G7558). […] Assay plates were incubated at 37 °C, 5% CO2 overnight to allow cell attachment. Following day, compounds were dispensed into the assay plate using the Tecan HPD300 system and incubated at 37 °C, 5% CO2 for 120 h. At 120 h post dose, CellTiter-Glo assay was performed according to the manufacturer’s protocol. […] Staurosporine (Selleckchem S1421) was used as a positive control for the assay.

The nature of series [4]: Nanoclick permeability assay. In short, it runs like this: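 Azido-peptide permeability was read as loss of NanoBRET signal (donor 450 nm, acceptor 610 nm) after adding NanoBret618-azide at 10 μM final.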
A short description of series [5]: Solubility assay (kinetic solubility, PBS pH 7). It is filed as physicochemical. The following applies: for solubility kinetic: pH 7, aqueous buffer, kinetic from dmso stock, read-out: Solubility. In short, it runs like this:
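Next, measure peak areas of sample and standard. Finally, multiply their ratio by the standard concentration to obtain solubility (µM).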

Series [6] in a line: Experimental LogD (partition coefficient). The following applies: for logD: not stated, Partition Coeff LogD.
The nature of series [7]: physchem. The source holds these as a separate data set.
Series [8] deals with Jump-In T-REx CHO-K1 BLA cells. The experiment in a line: cells. It is filed as cell-based. The note with it: for EC50: read-out: TETCHO: Counterscreen EC50. Background: The purpose of a counterscreen is to sort out artefacts and off-target activity.
Series [9] relates to p53 responsive β-lactamase reporter in HCT116 cells. The experiment in a line: cells. It is filed as cell-based. The following applies: read-out: p53 reporter assay EC50. Summed up:
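HCT116 cells stably carrying a p53-responsive β-lactamase reporter, seeded at 8000 cells/well, with 0.5% DMSO final. Reporter activity read by ToxBLAzer Dual Screen. Values are geometric means of at least three biological replicates.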

In a further series the target is T1, human Mdm2 1–125 (Homo sapiens, UniProt Q00987).
T1 construct: GST (N); His6 (internal); TEV cleavage site (ENLYFQG) (internal); made in house; host or cells: BL21 (DE3) Rosetta T1R Escherichia coli
T1 sequence (Q00987 with tags, fused parts or gaps): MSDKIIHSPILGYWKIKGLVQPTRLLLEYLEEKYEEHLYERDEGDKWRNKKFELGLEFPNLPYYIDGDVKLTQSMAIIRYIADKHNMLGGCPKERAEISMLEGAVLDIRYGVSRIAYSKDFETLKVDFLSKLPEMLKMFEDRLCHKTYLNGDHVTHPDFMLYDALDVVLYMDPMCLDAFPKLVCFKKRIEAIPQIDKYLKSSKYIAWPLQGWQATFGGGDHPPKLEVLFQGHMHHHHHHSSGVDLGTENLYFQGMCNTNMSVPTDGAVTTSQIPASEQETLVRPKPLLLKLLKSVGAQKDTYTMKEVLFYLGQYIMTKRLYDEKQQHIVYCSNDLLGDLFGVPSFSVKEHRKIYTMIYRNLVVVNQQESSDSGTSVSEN
The experiment in a line: Mdm2 binding by competitive fluorescence anisotropy assay (FP binding). The note with it: read-out: FP binding assay KD. On the technique in general: Fluorescence polarisation rises when a labelled molecule tumbles more slowly, as on binding a larger partner.

The conditions of series [10]: Fig S4.
Series [11] concerns CellSensor p53RE-bla HCT-116 Cell Line. The following applies: 72 h. In short, it runs like this:
(§2)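 Compound dilution series (10 points, 3-fold, 10 mM top stock in DMSO) tested on overnight-plated Ca Ski cells in RPMI1640/10% FBS and on blasticidin-selected p53RE-bla HCT-116 cells in McCoy's 5A; read-out was CellTiter-Glo 2.0 luminescence after room-temperature equilibration.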

The test system of another series is Ca Ski cell line. The following applies: 72 h. Summed up:
as §2

A further series in a line: in vitro. The note with it: human, HCT116 whole cell homogenates.
A further series is described as follows: EPSA. It is filed as physicochemical. The following applies: EPSA.
The mark [12] stands for this setting: Nanoclick permeability assay EC50.

On to `CC(=O)N[C@@H](CCCCN=[N+]=[N-])C(=O)NCCC(=O)N[C@H]1CCCCNC(=O)CC[C@@H]2NC(=O)[C@@](C)(CCCCCCC=CCCC[C@@](C)(C(=O)N[C@@H](CO)C(=O)N[C@@H](C)C(=O)N[C@@H](C)C(N)=O)NC(=O)[C@H](CC3CCC3)NC(=O)[C@H](CCC(N)=O)NC(=O)[C@H](C)NC(=O)[C@H](Cc3c[nH]c4ccccc34)NC(=O)[C@H](Cc3ccc(O)cc3)NC2=O)NC(=O)[C@H](Cc2ccccc2)NC(=O)[C@H]([C@@H](C)O)NC1=O` [MP-002], for which the “LDH: Cytotoxicity assay: % Effect” value with HCT116 cells (0% FBS 4Hr) is -7.169%; with HCT116 cells (0% FBS 16Hr), 0.3781%; in the series with HCT116 cells (10% FBS 4Hr) it was -6.533%; with HCT116 cells (10% FBS 16Hr), -11.6%. Besides, the EC50 (as a rule, the midpoint of the concentration-response curve) in series [1] (0% FBS 4Hr, read-out: LDH: Cytotoxicity assay: EC50) is more than 50.7 µM; in series [1] (0% FBS 16Hr, read-out: LDH: Cytotoxicity assay: EC50), more than 50.7 µM; in series [1] (10% FBS 4Hr, read-out: LDH: Cytotoxicity assay: EC50), more than 50.7 µM; in series [1] (10% FBS 16Hr, read-out: LDH: Cytotoxicity assay: EC50), more than 50.7 µM. The molecule further registered an EPSA in the series “physchem [2]” of 182 A^2. In series [3], the “off-target proliferation effects in p53 deficient control lines” value is on record as “remarkably devoid of off-target toxicity”. Further, the cell entry EC50 in [4] amounted to 0.462 µM. Besides, the Solubility result was “poor behavior” in series [5] and “Poorly Behaved” in series [5] (pH 7, PBS). The “Partition Coeff LogD” value in series [6] was “Poorly Behaved”.

Consider `CC(=O)N[C@@H](CO)C(=O)NCC(=O)N[C@@H](CO)C(=O)N[C@H](C(=O)N[C@@H](CO)C(=O)N[C@@H](Cc1ccccc1)C(=O)N[C@]1(C)CCCCCCC=CCCC[C@@](C)(C(N)=O)NC(=O)[C@H](CC(C)C)NC(=O)[C@H](CC(C)C)NC(=O)[C@H](C)NC(=O)[C@H](Cc2c[nH]c3ccccc23)NC(=O)[C@H](Cc2ccc(O)cc2)NC(=O)[C@H](CCC(=O)O)NC1=O)[C@@H](C)O` [MP-654], for which the EC50 is more than 50 µM in [1] (LDH: Cytotoxicity assay EC50); more than 50.6 µM in [8] (0% FBS 4Hr); more than 50 µM in series [8] (0% FBS 16Hr); 10.2 µM in series [9] (0% FBS 4Hr); 13.8 µM in [9] (0% FBS 16Hr). Also, the solubility kinetic in series [5] (pH 7, PBS) was 23 µM (≈ 39 µg/mL). Also, in the series “physchem [7]”, the EPSA is 217 A^2. Also, the “TETCHO: Counterscreen % Effect” value in series [8] (0% FBS 4Hr) is 1.563%; in series [8] (0% FBS 16Hr), 3.969%. Moreover, on human Mdm2 1–125, the Kd (commonly the equilibrium constant for the complex coming apart) amounted to 0.00586 µM. For the same molecule, in series [6], the logD (commonly lipophilicity at a set pH, counting ionised and neutral species) worked out at 2.3.

Consider `CC(=O)N[C@@H](CCCCN=[N+]=[N-])C(=O)NCCC(=O)N[C@@H](CC(C)C)C(=O)N[C@H](C(=O)N[C@@H](Cc1ccccc1)C(=O)N[C@]1(C)CCCCCCC=CCCC[C@@](C)(C(=O)N[C@@H](C)C(=O)N[C@@H](C)C(=O)N[C@@H](C)C(=O)N[C@@H](C)C(=O)N[C@@H](C)C(=O)N[C@H](C)C(N)=O)NC(=O)[C@H](CC2CCC2)NC(=O)[C@H](CCC(N)=O)NC(=O)[C@H](C)NC(=O)[C@H](Cc2c[nH]c3ccccc23)NC(=O)[C@H](Cc2ccc(O)cc2)NC(=O)[C@H](CCC(=O)O)NC1=O)[C@@H](C)O` [MP-464] (Ac-[Lys(N3)][βAla]LTF[R8]EYWAQ[Cba][S5]AAAAA[dA]-NH2; staple 6-13), for which, in [10], the “stability in serum plasma” value is recorded as “highly stable”. For the same molecule, the 50% effective concentration (EC50) in series [1] (LDH: Cytotoxicity assay: EC50) is more than 50.7 µM; in series [11], 0.42 µM; with Ca Ski cell line it was more than 49.8 µM. Further, the cell entry EC50 in series [4] (setting [12]) was determined as 4.19 µM. In addition, in series [5] (pH 7, PBS), the solubility kinetic came to 157 µM (≈ 340 µg/mL). In addition, in “in vitro”, the half-life – broadly, the time in which the quantity being followed falls by half – at 1 μM is 1.53 h. This molecule also gave an EPSA in the series “EPSA” of 194 A^2.

For `CC(=O)N[C@@H](CCCCN=[N+]=[N-])C(=O)NCCC(=O)N[C@@H](CC(C)C)C(=O)N[C@H](C(=O)N[C@@H](Cc1ccccc1)C(=O)N[C@]1(C)CCCCCCC=CCCC[C@@](C)(C(=O)N[C@@H](C)C(=O)N[C@@H](C)C(=O)N[C@@H](C)C(=O)N[C@@H](C)C(=O)N[C@@H](C)C(=O)N[C@@H](C)C(N)=O)NC(=O)[C@H](CC2CCC2)NC(=O)[C@H](CCC(N)=O)NC(=O)[C@H](C)NC(=O)[C@H](Cc2c[nH]c3ccccc23)NC(=O)[C@H](Cc2ccc(O)cc2)NC(=O)[C@H](CCC(=O)O)NC1=O)[C@@H](C)O` [MP-032] (Ac-[Lys(N3)][βAla]LTF[R8]EYWAQ[Cba][S5]AAAAAA-NH2; staple 6-13), the EC50 in series [1] (LDH: Cytotoxicity assay: EC50) is more than 50.7 µM; in series [11] it was 0.96 µM; in the series with Ca Ski cell line, 26.6 µM. Besides, the cell entry EC50 in series [4] (setting [12]) stood at 0.708 µM. The Solubility result in series [5] is listed as “P.B”; in series [5] (pH 7, PBS), “Poorly Behaved”. Moreover, the half-life at 1 μM in “in vitro” was 0.5 h. Also, the EPSA in “EPSA” stood at 194 A^2. The “Partition Coeff LogD” value in [6] is listed as “Poorly Behaved”.

Regarding `CC(=O)N[C@@H](CCCCN=[N+]=[N-])C(=O)N[C@H](C(=O)N[C@@H](CO)C(=O)N[C@@H](Cc1ccccc1)C(=O)N[C@]1(C)CCCCCCC=CCCC[C@@](C)(C(=O)N[C@@H](CO)C(=O)N[C@@H](C)C(=O)N[C@@H](C)C(N)=O)NC(=O)[C@H](CC2CCC2)NC(=O)[C@H](CCC(N)=O)NC(=O)[C@H](C)NC(=O)[C@H](Cc2c[nH]c3ccccc23)NC(=O)[C@H](Cc2ccc(O)cc2)NC(=O)[C@H](C)NC1=O)[C@@H](C)O` [MP-703] (Ac-[Lys(N3)]TSF[R8]AYWAQ[Cba][S5]SAA-NH2; staple 5-12), the EC50 in series [1] (LDH: Cytotoxicity assay EC50) was more than 50 µM; in series [8] (0% FBS 4Hr), more than 50.6 µM; in series [9] (0% FBS 4Hr), 0.302 µM; in series [9] (0% FBS 16Hr), 0.87 µM. Also, in series [5] (pH 7, PBS), the Solubility result was “Poorly Behaved”. Besides, in “physchem [7]”, the EPSA stood at 178 A^2. Also, the “TETCHO: Counterscreen % Effect” value in series [8] (0% FBS 4Hr) is 32.8%. In series [6], the “Partition Coeff LogD” value is “Poorly Behaved”.

In series [1] (LDH: Cytotoxicity assay EC50), `CC(=O)N[C@@H](CCCCN=[N+]=[N-])C(=O)NCCC(=O)N[C@@H](CC(C)C)C(=O)N[C@H](C(=O)N[C@@H](Cc1ccccc1)C(=O)N[C@]1(C)CCCCCCC=CCCC[C@@](C)(C(=O)N[C@@H](CO)C(=O)N[C@@H](CCCCNC(=N)N)C(=O)N[C@@H](C)C(N)=O)NC(=O)[C@H](CC2CCC2)NC(=O)[C@H](CCC(N)=O)NC(=O)[C@H](C)NC(=O)[C@H](Cc2c[nH]c3ccccc23)NC(=O)[C@H](Cc2ccc(O)cc2)NC(=O)[C@H](CCC(=O)O)NC1=O)[C@@H](C)O` [MP-881] (Ac-[Lys(N3)][βAla]LTF[R8]EYWAQ[Cba][S5]S[hArg]A-NH2; staple 6-13) had an EC50 of more than 50 µM. In addition, in series [4] (setting [12]), the cell entry EC50 is 1.92 µM. For the same molecule, the solubility kinetic in [5] (pH 7, PBS) was determined as 2 µM (≈ 4.14 µg/mL). Also, in “physchem [7]”, the EPSA was 183 A^2. In [6], this molecule showed a log distribution coefficient (logD) of 2.9.

On to `CC1CCC(Cn2c(N3CCO[C@@H]4CCC[C@H]43)nc3cc(-c4noc(=O)[nH]4)nc(-c4cncc(Cl)c4)c32)CC1` (some centres unmarked) [MK-4688, reference compound], for which the “off-target proliferation effects in p53 deficient control lines” value in series [3] is given as “significant off-target toxicities”.
